Measurements as given in US20240124564A1, “ANTI-CLEAVED HISTONE H3 MONOCLONAL ANTIBODY THAT SPECIFICALLY RECOGNIZES NEUTROPHIL EXTRACELLULAR TRAPS” (Max-Planck-Gesellschaft zur Förderung der Wissenschaften …, priority 2021, published 2024).
No end group written: not given here.

How the values were obtained:
[1] = test system: NET formation; experiment: NET formation by immunofluorescent confocal microscopy with serine protease inhibition; format: cell-based, human; settings: preincubation, PMA 50 nM, 150 min
Method: (§1) Lysates were resolved by SDS-PAGE and immunoblotted with N- and C-terminal antibodies to H3. GAPDH was used as a loading control. […] At 150 min the cells were fixed and stained for neutrophil elastase (NE), chromatin (using a H2A-H2B-DNA antibody PL2.3) and DNA using DAPI (4′,6-diamidino-2-phenylindole). NS: non-stimulated. Images were taken at 63× and the scale bar is 20 μm.
For immunofluorescent imaging of purified cells, neutrophils/PBMCs were seeded in 24 well dishes containing glass coverslips, with 1×10^5 cells per well and incubated at 37° C. for 1 h allowing to adhere to the coverslip. At this stage, inhibitors and priming factors were included as indicated. Reactions were stopped by the addition of paraformaldehyde (2% [w/v]) for 20 min at RT or 4° C. overnight. After fixation, cells were washed and stained as previously described (Brinkmann et al 2012). Briefly, all steps were performed by floating inverted coverslips on drops of buffer on laboratory parafilm. Cells were permeabilised with PBS, pH 7.5, 0.5% (v/v) Triton X-100 for 3 min. For screening and quantification experiments, this permeabilization step was extended to 10 min. […]

[2] = test system: Histone H3 cleavage by serine proteases; experiment: PMA induced histone H3 cleavage in neutrophils (immunoblot) with serine protease inhibition; format: cell-based, human; settings: preincubation 30 min
Method: as §1
For all experiments, unless indicated, neutrophils were cultured RPMI (GIBCO 32404014) supplemented with 10 mM HEPES and 0.1% (w/v) HSA, which had been preequilibrated in CO2 conditions for 1 h. Cells were routinely cultured at 37° C., 5% CO2 unless indicated. For all experiments, stimuli were added to cell reactions as 10× working stock solutions freshly diluted in RPMI. For inhibition experiments, a 10× inhibitor stock and appropriate vehicle controls, were added to the cells and preincubated for the times stated in the figure legends.
To analyse proteins, lysates were prepared from stimulated or resting neutrophils. Cells were seeded in culture medium in 1.5 ml microcentrifuge tubes at 1×10^7 cells/ml with 5×10^6 cells per time point. After addition of the inhibitor or agonist, cells were gently mixed and incubated at 37° C. with gentle rotation. […]
For routine protein analysis, samples were analysed by 1D SDS-PAGE and immunoblotted. […] Blotting efficacy was assessed by Ponceau S staining. […]

[3] = test system: 3D9 binding to NETs; experiment: Peptide competition assay; set-up: species or system human; settings: 3D9 preincubated overnight with peptide; PMA 3 h neutrophils
Method: NS: non-stimulated. Images were taken on an upright fluorescent microscope at 20×. Scale bars-50 μm (full field) and 10 μm (inset). • (B) Immunoblots of lysates prepared from neutrophils stimulated with PMA (50 nM) for the times indicated in the figure. […] Samples were serially diluted and immobilized on a high affinity ELISA plate according to DNA content (for NETs, chromatin and DNA) or protein content (for recombinant histone H3) as determined by PicoGreen and bicinchoninic acid assays respectively. Starting concentration was 1 μg/ml DNA or protein. […] Data is presented for dilution 200 ng/ml. REIRR indicates unconjugated branched immunising peptide control formed by SEQ ID NO 11 and SEQ ID NO 26. This peptide was coated at 20 ng/ml. […] (F, G) Neutrophils were seeded in 10 ml petri dishes and stimulated for 3 h with PMA. Before total cell lysis and immunoprecipitation, NETs were digested with benzonase to liberate histones and octamers for antibody binding. […] (F) Coomassie stained gel of proteins immunoprecipitated by 3D9 or isotype control and the corresponding silver stained gel. The predicted cleaved H3 and intact H3 bands are indicated. […]
Neutrophils were seeded on coverslips in a 24 well dish (1×10^5 cells/well) and stimulated with PMA for 3 h and fixed with 2% PFA. […] Peptide competition was assessed visually by fluorescent microscopy.

| competition of 3D9 staining of NETs [3] | Compound | effect on NET formation [1] | effect on H3 cleavage upon PMA stimulation [2] |
| --- | --- | --- | --- |
| – | NCCc1ccc(S(=O)(=O)F)cc1 [AEBSF, 4-[2-aminoethyl] benzensulfonylfluoride] | inhibited NET formation and nuclear decondensation | inhibited H3 cleavage |
| could block 3D9 binding to NETs | branched immunising peptide: branched peptide formed by REIRR (SEQ ID NO 11) and REIRRKC-NH2 (SEQ ID NO 12) (also: branched: C-terminus of chain 1 amide-linked to Lys6 side chain of chain 2, chain 2 conjugated to KLH via Cys thiol, lactam at chain B 6 to a chain's C-terminus; listed as Homo sapiens) | – | – |
